US11919901B2 (Syndax Pharmaceuticals, Inc., priority 2021, dated 2024)

Molecular target: Menin-MLL (Homo sapiens (Human), UniProt O00255)
Test: Determination of binding constants (Ki) to Menin-MLL (HTRF)
Conditions: HTRF, 0.25 nM H-FL-Menin, 3.2 nM FITC-MLL-4-43, 24 hr incubation; for Ki: read-out: Menin-MLL Ki HTRF Assay: Ki

Sequence of Menin-MLL (O00255 whole entry): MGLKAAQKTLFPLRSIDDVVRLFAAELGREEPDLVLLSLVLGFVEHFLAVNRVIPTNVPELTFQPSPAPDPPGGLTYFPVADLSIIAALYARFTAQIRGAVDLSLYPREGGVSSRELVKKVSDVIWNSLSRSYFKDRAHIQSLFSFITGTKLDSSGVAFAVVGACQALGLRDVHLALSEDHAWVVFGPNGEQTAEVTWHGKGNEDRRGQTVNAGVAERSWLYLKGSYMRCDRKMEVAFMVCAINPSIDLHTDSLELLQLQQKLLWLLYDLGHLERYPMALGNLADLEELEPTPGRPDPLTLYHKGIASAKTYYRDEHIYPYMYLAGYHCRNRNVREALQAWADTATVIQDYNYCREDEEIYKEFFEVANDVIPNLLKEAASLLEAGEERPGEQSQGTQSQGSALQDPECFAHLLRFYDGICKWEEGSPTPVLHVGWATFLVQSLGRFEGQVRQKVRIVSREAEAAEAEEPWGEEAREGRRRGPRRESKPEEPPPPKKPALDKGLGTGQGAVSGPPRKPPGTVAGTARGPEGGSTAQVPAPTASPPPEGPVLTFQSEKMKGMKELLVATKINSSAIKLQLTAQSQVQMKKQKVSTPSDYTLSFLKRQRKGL

EC50 [nM]	SMILES	Ki [nM]
	CC(C)N(C(=O)c1cc(F)ccc1Oc1cncnc1N1CC2(CCN(C[C@@H]3CC[C@@H](NS(=O)(=O)C(C)C)CO3)CC2)C1)[C@H]1CCOC1 [Compound 174, 5-Fluoro-N-isopropyl-2-((4-(7-(((2S,5R)-5-((1-methylethyl)sulfonamido)tetrahydro-2H-pyran-2-yl)methyl)-2,7-diazaspiro[3.5]nonan-2-yl)pyrimidin-5-yl)oxy)-N-((S)-tetrahydrofuran-3-yl)benzamide]	< 1
	CC(C)N(C(=O)c1cc(F)ccc1Oc1cncnc1N1CC2(CCN(C[C@@H]3CC[C@@H](NS(=O)(=O)N4CCCC4)CO3)CC2)C1)[C@H]1CCOC1 [Compound 178, 5-Fluoro-N-isopropyl-2-((4-(7-(((2S,5R)-5-(pyrrolidine-1-sulfonamido)tetrahydro-2H-pyran-2-yl)methyl)-2,7-diazaspiro[3.5]nonan-2-yl)pyrimidin-5-yl)oxy)-N-((S)-tetrahydrofuran-3-yl)benzamide]	< 1
	CCN(C)S(=O)(=O)N[C@@H]1CC[C@@H](CN2CCC3(CC2)CN(c2ncncc2Oc2ccc(F)cc2C(=O)N(C(C)C)[C@H]2CCOC2)C3)OC1 [Compound 179, 2-((4-(7-(((2S,5R)-5-((N-Ethyl-N-methylsulfamoyl)amino)tetrahydro-2H-pyran-2-yl)methyl)-2,7-diazaspiro[3.5]nonan-2-yl)pyrimidin-5-yl)oxy)-5-fluoro-N-isopropyl-N-((S)-tetrahydrofuran-3-yl)benzamide]	< 1
	CCNS(=O)(=O)N[C@@H]1CC[C@@H](CN2CCC3(CC2)CN(c2ncncc2Oc2ccc(F)cc2C(=O)N(C(C)C)[C@H]2CCOC2)C3)OC1 [Compound 180, 2-((4-(7-(((2S,5R)-5-((N-Ethylsulfamoyl)amino)tetrahydro-2H-pyran-2-yl)methyl)-2,7-diazaspiro[3.5]nonan-2-yl)pyrimidin-5-yl)oxy)-5-fluoro-N-isopropyl-N-((S)-tetrahydrofuran-3-yl)benzamide]	< 1
	CC(C)N(CCC#N)C(=O)c1cc(F)ccc1Oc1cncnc1N1CC2(CCN(C[C@@H]3CC[C@@H](NS(=O)(=O)N4CCC4)CO3)CC2)C1 [Compound 184, 2-((4-(7-(((2S,5R)-5-(Azetidine-1-sulfonamido)tetrahydro-2H-pyran-2-yl)methyl)-2,7-diazaspiro[3.5]nonan-2-yl)pyrimidin-5-yl)oxy)-N-(2-cyanoethyl)-5-fluoro-N-isopropylbenzamide]	< 1
	CCS(=O)(=O)N[C@@H]1CC[C@@H](CN2CCC3(CC2)CN(c2ncnnc2Oc2ccc(F)cc2C(=O)N(CC(F)F)C(C)C)C3)OC1 [Compound 185, N-(2,2-Difluoroethyl)-2-((5-(7-(((2S,5R)-5-(ethylsulfonamido)tetrahydro-2H-pyran-2-yl)methyl)-2,7-diazaspiro[3.5]nonan-2-yl)-1,2,4-triazin-6-yl)oxy)-5-fluoro-N-isopropylbenzamide]	< 1
	CC(C)N(CC(F)F)C(=O)c1cc(F)ccc1Oc1nncnc1N1CC2(CCN(C[C@@H]3CC[C@@H](NS(=O)(=O)C4CC4)CO3)CC2)C1 [Compound 186, 2-((5-(7-(((2S,5R)-5-(Cyclopropanesulfonamido)tetrahydro-2H-pyran-2-yl)methyl)-2,7-diazaspiro[3.5]nonan-2-yl)-1,2,4-triazin-6-yl)oxy)-N-(2,2-difluoroethyl)-5-fluoro-N-isopropylbenzamide]	< 1
	CC(C)N(CC(F)F)C(=O)c1cc(F)ccc1Oc1nncnc1N1CC2(CCN(C[C@@H]3CC[C@@H](NS(=O)(=O)c4cnn(C)c4)CO3)CC2)C1 [Compound 187, N-(2,2-Difluoroethyl)-5-fluoro-N-isopropyl-2-((5-(7-(((2S,5R)-5-((1-methyl-1H-pyrazole)-4-sulfonamido)tetrahydro-2H-pyran-2-yl)methyl)-2,7-diazaspiro[3.5]nonan-2-yl)-1,2,4-triazin-6-yl)oxy)benzamide]	< 1
	CCNS(=O)(=O)N[C@@H]1CC[C@@H](CN2CCC3(CC2)CN(c2ncnnc2Oc2ccc(F)cc2C(=O)N(CC(F)F)C(C)C)C3)OC1 [Compound 188, N-(2,2-Difluoroethyl)-2-((5-(7-(((2S,5R)-5-((N-ethylsulfamoyl)amino)tetrahydro-2H-pyran-2-yl)methyl)-2,7-diazaspiro[3.5]nonan-2-yl)-1,2,4-triazin-6-yl)oxy)-5-fluoro-N-isopropylbenzamide]	< 1
	CCS(=O)(=O)N[C@@H]1CC[C@@H](CN2CCC3(CC2)CN(c2ncnnc2Oc2ccc(F)cc2C(=O)N(CC(F)(F)F)C(C)C)C3)OC1 [Compound 190, 2-((5-(7-(((2S,5R)-5-(Ethylsulfonamido)tetrahydro-2H-pyran-2-yl)methyl)-2,7-diazaspiro[3.5]nonan-2-yl)-1,2,4-triazin-6-yl)oxy)-5-fluoro-N-isopropyl-N-(2,2,2-trifluoroethyl)benzamide]	< 1
	CC(C)N(CC(F)(F)F)C(=O)c1cc(F)ccc1Oc1nncnc1N1CC2(CCN(C[C@@H]3CC[C@@H](NS(=O)(=O)C4CC4)CO3)CC2)C1 [Compound 191, 2-((5-(7-(((2S,5R)-5-(Cyclopropanesulfonamido)tetrahydro-2H-pyran-2-yl)methyl)-2,7-diazaspiro[3.5]nonan-2-yl)-1,2,4-triazin-6-yl)oxy)-5-fluoro-N-isopropyl-N-(2,2,2-trifluoroethyl)benzamide]	< 1
	CC(C)N(CC(F)(F)F)C(=O)c1cc(F)ccc1Oc1nncnc1N1CC2(CCN(C[C@@H]3CC[C@@H](NS(=O)(=O)c4cnn(C)c4)CO3)CC2)C1 [Compound 192, 5-Fluoro-N-isopropyl-2-((5-(7-(((2R,5S)-5-((1-methyl-1H-pyrazole)-4-sulfonamido)tetrahydro-2H-pyran-2-yl)methyl)-2,7-diazaspiro[3.5]nonan-2-yl)-1,2,4-triazin-6-yl)oxy)-N-(2,2,2-trifluoroethyl)benzamide]	< 1
	CCS(=O)(=O)N[C@@H]1CC[C@@H](CN2CCC3(CC2)CN(c2ncnnc2Oc2ccc(F)cc2C(=O)N(C(C)C)C(C)C)C3)OC1 [Compound 195, 2-((5-(7-(((2S,5R)-5-(Ethylsulfonamido)tetrahydro-2H-pyran-2-yl)methyl)-2,7-diazaspiro[3.5]nonan-2-yl)-1,2,4-triazin-6-yl)oxy)-5-fluoro-N,N-diisopropylbenzamide]	< 1
	CC(C)N(C(=O)c1cc(F)ccc1Oc1nncnc1N1CC2(CCN(C[C@@H]3CC[C@@H](NS(=O)(=O)c4cnn(C)c4)CO3)CC2)C1)C(C)C [Compound 197, 5-Fluoro-N,N-diisopropyl-2-((5-(7-(((2S,5R)-5-((1-methyl-1H-pyrazole)-4-sulfonamido)tetrahydro-2H-pyran-2-yl)methyl)-2,7-diazaspiro[3.5]nonan-2-yl)-1,2,4-triazin-6-yl)oxy)benzamide]	< 1
	CC(C)N(C(=O)c1cc(F)ccc1Oc1cncnc1N1CC2(CCN(C[C@@H]3CC[C@@H](NS(=O)(=O)N4CCC[C@H]4C)CO3)CC2)C1)[C@@H]1CCOC1 [Compound 204, 5-Fluoro-N-isopropyl-2-((4-(7-(((2S,5R)-5-(((R)-2-methylpyrrolidine)-1-sulfonamido)tetrahydro-2H-pyran-2-yl)methyl)-2,7-diazaspiro[3.5]nonan-2-yl)pyrimidin-5-yl)oxy)-N-((R)-tetrahydrofuran-3-yl)benzamide]	< 1
	CC(C)N(C(=O)c1cc(F)ccc1Oc1cncnc1N1CC2(CCN(C[C@@H]3CC[C@@H](NS(=O)(=O)N4CCC[C@@H]4C)CO3)CC2)C1)[C@@H]1CCOC1 [Compound 205, 5-Fluoro-N-isopropyl-2-((4-(7-(((2S,5R)-5-(((S)-2-methylpyrrolidine)-1-sulfonamido)tetrahydro-2H-pyran-2-yl)methyl)-2,7-diazaspiro[3.5]nonan-2-yl)pyrimidin-5-yl)oxy)-N-((R)-tetrahydrofuran-3-yl)benzamide]	< 1
	CC(C)N(C(=O)c1cc(F)ccc1Oc1cncnc1N1CC2(CCN(C[C@@H]3CC[C@@H](NS(=O)(=O)N4CCC[C@@H]4C)CO3)CC2)C1)C1CCOC1 (stereo partly drawn) [Compound 206, 5-Fluoro-N-isopropyl-2-((4-(7-(((2S,5R)-5-(((S)-2-methylpyrrolidine)-1-sulfonamido)tetrahydro-2H-pyran-2-yl)methyl)-2,7-diazaspiro[3.5]nonan-2-yl)pyrimidin-5-yl)oxy)-N-((S)-tetrahydrofuran-3-yl)benzamide]	< 1
	CC(C)N(C(=O)c1cc(F)ccc1Oc1cncnc1N1CC2(CCN(C[C@@H]3CC[C@@H](NS(=O)(=O)N4CCC[C@H]4C)CO3)CC2)C1)C1CCOC1 (stereo partly drawn) [Compound 207, 5-Fluoro-N-isopropyl-2-((4-(7-(((2S,5R)-5-(((R)-2-methylpyrrolidine)-1-sulfonamido)tetrahydro-2H-pyran-2-yl)methyl)-2,7-diazaspiro[3.5]nonan-2-yl)pyrimidin-5-yl)oxy)-N-((S)-tetrahydrofuran-3-yl)benzamide]	< 1
	COC[C@H]1CCCN1S(=O)(=O)N[C@@H]1CC[C@@H](CN2CCC3(CC2)CN(c2ncncc2Oc2ccc(F)cc2C(=O)N(C(C)C)C(C)C)C3)OC1 [Compound 212, 5-Fluoro-N,N-diisopropyl-2-((4-(7-(((2S,5R)-5-(((R)-2-(methoxymethyl)pyrrolidine)-1-sulfonamido)tetrahydro-2H-pyran-2-yl)methyl)-2,7-diazaspiro[3.5]nonan-2-yl)pyrimidin-5-yl)oxy)benzamide]	< 1
	COC[C@@H]1CCCN1S(=O)(=O)N[C@@H]1CC[C@@H](CN2CCC3(CC2)CN(c2ncncc2Oc2ccc(F)cc2C(=O)N(C(C)C)C(C)C)C3)OC1 [Compound 213, 5-Fluoro-N,N-diisopropyl-2-((4-(7-(((2S,5R)-5-(((S)-2-(methoxymethyl)pyrrolidine)-1-sulfonamido)tetrahydro-2H-pyran-2-yl)methyl)-2,7-diazaspiro[3.5]nonan-2-yl)pyrimidin-5-yl)oxy)benzamide]	< 1
50 to 100	CCN(C(=O)c1cc(F)ccc1Oc1cncnc1N1CC2(CCN(C[C@@H]3CC[C@@H](NC(=O)Nc4ccccc4)CO3)CC2)C1)C(C)C [Compound 215, N-Ethyl-5-fluoro-N-isopropyl-2-((4-(7-(((2S,5R)-5-(3-phenylureido)tetrahydro-2H-pyran-2-yl)methyl)-2,7-diazaspiro[3.5]nonan-2-yl)pyrimidin-5-yl)oxy)benzamide]	
